Test [1] addresses T1, SPNS2 (Homo sapiens, UniProt Q8IVW8).
T1 sequence (Q8IVW8 1-549): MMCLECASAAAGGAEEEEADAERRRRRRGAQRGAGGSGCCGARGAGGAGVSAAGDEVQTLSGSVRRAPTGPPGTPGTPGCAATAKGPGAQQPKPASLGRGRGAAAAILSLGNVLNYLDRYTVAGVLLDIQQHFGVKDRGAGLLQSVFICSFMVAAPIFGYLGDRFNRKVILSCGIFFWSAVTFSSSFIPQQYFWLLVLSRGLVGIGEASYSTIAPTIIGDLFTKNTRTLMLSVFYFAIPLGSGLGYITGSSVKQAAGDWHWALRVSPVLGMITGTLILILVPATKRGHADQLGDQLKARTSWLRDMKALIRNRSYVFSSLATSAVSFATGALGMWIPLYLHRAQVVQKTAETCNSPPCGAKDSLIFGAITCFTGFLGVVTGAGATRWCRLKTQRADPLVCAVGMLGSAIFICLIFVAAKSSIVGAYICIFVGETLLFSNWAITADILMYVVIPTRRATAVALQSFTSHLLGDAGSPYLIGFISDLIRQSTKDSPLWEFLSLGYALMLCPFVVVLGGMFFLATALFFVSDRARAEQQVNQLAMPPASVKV
In words: S1PR3-coupled S1P export assay in CHO cells. More on the design: untagged wild type SPNS2 overexpressed with SphK1 in CHO-K1 cells. It is filed as cell-based.

Test [2] concerns the target T1, SPNS2. In words: S1PR3-coupled S1P export assay; R200S mutant inactive. Format: cell-based. Set-up: untagged wild type SPNS2 overexpressed with SphK1 in CHO-K1 cells.
For test [3], the target named is T1, SPNS2. Description: cryo-EM structure at […] Å (detergent modeled as dodecyl glucoside; mixture of DDM and S1P not excluded). Format: binding. Set-up: full-length human SPNS2; residues 1-99, 287-296 and 352-358 not resolved; with nanobody NbD12.
The target in test [4] is T2, Biotinylated SPNS2 (full-length, codon-optimized, C-terminal AVI and Flag tag) (Homo sapiens, UniProt Q8IVW8, biotin (AVI tag, BirA co-expressed)).
T2 construct: SPNS2, full-length codon-optimized, in the in-house baculovirus vector pD-INS3; The species is not repeated in the paragraph on this construct; also called Biotinylated SPNS2 protein; source: Sf9 cells co-infected with SPNS2 and BirA baculovirus, biotin in the medium; purified in DDM or LMNG (Anti-Flag M2 resin, SEC); not shown: AVI, C-terminal, kept
In words: SPR; Biacore 8K; biotinylated SPNS2 immobilised on SA sensor chip (600 to 800 RU); nanobody series 0 to 1 or 10 uM injected; 20 mM HEPES pH 7.5, 150 mM NaCl, 0.026% DDM, 0.01% fatty acid free BSA; 25 °C; 1:1 interaction model. The settings on record: both partners purified.

On SPNS2 [1], `CCCCCCCCCCc1ccc2nc(NC[C@H]3CCNC3)oc2c1` [33p, 6-decyl-N-[[(3S)-pyrrolidin-3-yl]methyl]-1,3-benzoxazol-2-amine] came in with an IC50 of 1900 ± 320 nM.

Turning to `CCCCCCCCCCCCC/C=C/[C@@H](O)[C@@H](N)COP(=O)(O)O` [Sphingosine-1-phosphate], on SPNS2 [2], the “S1PR3-coupled S1P export assay; R200S mutant inactive” value is given as “Validating this assay, the SPNS2 mutation R200S shows no S1P transport activity”.

With `CCCCCCCCCCCCO[C@@H]1O[C@H](CO)[C@@H](O[C@H]2O[C@H](CO)[C@@H](O)[C@H](O)[C@H]2O)[C@H](O)[C@H]1O` [n-dodecyl-β-D-maltopyranoside], the “cryo-EM structure at 3.7 Å (detergent modeled as dodecyl glucoside); mixture of D” value at SPNS2 [3] is “the unknown density fits the acyl chain and first glucose of n-dodecyl-β-D-maltopyranoside”.

B1: Nanobody D12 (NbD12) (VHH)
VHH: QVQLVESGGGLVQAGGSLRLSCAASGRLLSWYDMAWFRQAPGKEREFVAAVTSTGAGTHYVDSVKGRFTISRVNAKNTMYLQMNSLKPEDTAVYYCAAANTRLTALSLRTTTGSWAYWGKGTPVTVSS
notes: Raised by immunising alpacas with SPNS2 and selected by phage display; Subcloned into pBXNP (Addgene 110098) modified to carry a 1x FLAG tag upstream of the 10x His tag; The FLAG tag is used for capture and detection in the co-IP and the immunofluorescence; source: E. coli MC1061 periplasm, purified
In test [4], B1 came in with a Kd of 7.75 nM.

Usually IC50 stands for the point on the concentration scale where inhibition reaches its midpoint. Low readings indicate greater potency, high ones weaker potency. What is called Kd is the equilibrium constant for the complex coming apart. High values mean a looser complex, low ones a tighter complex.

These data come from publication PMC11739509, “Transport and inhibition of the sphingosine-1-phosphate exporter SPNS2” (Nature Communications, 2025).
